In patent US10201531B2, “Indazolyl-oxo-isothiazole compounds” (MOCHIDA PHARMACEUTICAL CO., LTD., priority 2015, dated 2019):

Tested on: Nrf2
Assay: Evaluation of Nrf2 activation ability (Nrf2d-LacZ / Keap1 HEK293 reporter, Beta-Glo luminescence)
Format: cell-based, human
Conditions: Pharmacological Test Example 1, rated A/B/C
Method: HEK293 cells constantly expressing Nrf2d-LacZ (human Nrf2 degron region fused to LacZ; Hirotsu et al, Genes to Cell, Vol. 16, pp. 406-415 (2011)) and human Keap1 were seeded 7,000 cells/27 μl/well on 384-well plates (Corning 384 Well Flat Clear Bottom White Polystyrene TC-Treated Microplates, Cat. #3707), and cultured overnight at 5% CO2, 37° C. in DMEM medium containing 10% FBS, 100 U/mL penicillin and 100 μg/mL streptomycin. 3 μL/well of a 0.1% DMSO solution of the compound of the invention was added to the cells, which were then cultured for 3 hours at 5% CO2, 37° C. Beta-Glo® reagent (Promega, Beta-Glo Assay System, Cat. #E4740) was added 15 μL/well and incubated for 1 hour at room temperature, and luminescence intensity was measured with a luminometer. Using CDDO-Im as a standard, Nrf2 activation ability was calculated given 100% as the luminescence under stimulus with 100 nM CDDO-Im.

EC50 [nM]	SMILES
< 1000	COc1nc(Cl)ccc1-c1cnn(-c2cc(O)n[s+]2[O-])c1 (centres unmarked) [Example 440]
< 1000	CN1CCOc2cc(-c3cnn(-c4cc(O)n[s+]4[O-])c3)ccc21 (centres unmarked) [Example 347]
1000 to 5000	[O-][s+]1nc(O)cc1-n1cc(-c2ccc(F)nc2)cn1 (centres unmarked) [Example 438]
1000 to 5000	[O-][s+]1nc(O)cc1-n1cc(-c2ccc3c(c2)OCCO3)cn1 (centres unmarked) [Example 346]
< 1000	[O-][s+]1nc(O)cc1-n1cc(-c2ccc(-c3ccc(N4CCCCC4)nc3)nc2)cn1 (centres unmarked) [Example 442]
< 1000	COc1nc(-c2ccc(N3CCCC3)nc2)ccc1-c1cnn(-c2cc(O)n[s+]2[O-])c1 (single isomer, unassigned) [Example 453]
1000 to 5000	[O-][s+]1nc(O)cc1-n1cc(-c2ccc(Oc3ccc(C(F)(F)F)cc3Cl)cc2)cn1 (centres unmarked) [Example 374]
< 1000	[O-][s+]1nc(O)cc1-n1cc(-c2ccc3cccnc3c2)cn1 (centres unmarked) [Example 357]
< 1000	Cn1ccc2c(-c3cnn(-c4cc(O)n[s+]4[O-])c3)cccc21 (centres unmarked) [Example 352]
1000 to 5000	[O-][s+]1nc(O)cc1-n1cc(-c2ccccn2)cn1 (centres unmarked) [Example 386]
< 1000	Cc1nc2cc(-c3cnn(-c4cc(O)n[s+]4[O-])c3)ccc2s1 (centres unmarked) [Example 354]

Same assay, conditions: rated A/B/C, Pharmacological Test Example 1

SMILES	EC50 [nM]
COc1cc(-c2cncc(C)c2)c2cnn(-c3cc(O)n[s+]3[O-])c2c1 (centres unmarked) [Example 167]	1000 to 5000
[O-][s+]1nc(O)cc1-n1ncc2c(C3=CCC(F)(F)CC3)cccc21 (centres unmarked) [Example 93]	1000 to 5000
[O-][s+]1nc(O)cc1-n1ncc2cc(-c3ccc(N4CCC(F)(F)C4)nc3)ccc21 (centres unmarked) [Example 182]	< 1000
Cc1cnc(-c2ccc3c(cnn3-c3cc(O)n[s+]3[O-])c2)cn1 (centres unmarked) [Example 123]	< 1000
CN1C(=O)COc2nc(-c3ccc4c(cnn4-c4cc(O)n[s+]4[O-])c3)ncc21 (centres unmarked) [Example 218]	1000 to 5000
[O-][s+]1nc(O)cc1-n1ncc2cccc(Cl)c21 (centres unmarked) [Example 37]	1000 to 5000
Cn1cc(-c2ccc3c(cnn3-c3cc(O)n[s+]3[O-])c2)cn1 (centres unmarked) [Example 50]	< 1000
[O-][s+]1nc(O)cc1-n1ncc2ccc(Cl)cc21 (centres unmarked) [Example 31]	1000 to 5000
[O-][s+]1nc(O)cc1-n1ncc2ccc(-c3ccc(C4CC4)nc3)cc21 (centres unmarked) [Example 111]	1000 to 5000
COc1cc(-c2ccc(C3CC3)nc2)cc2c1cnn2-c1cc(O)n[s+]1[O-] (centres unmarked) [Example 203]	< 1000
COc1c(-c2cnc3c(c2)OCCN3C)ccc2c1cnn2-c1cc(O)n[s+]1[O-] (centres unmarked) [Example 211]	< 1000
[O-][s+]1nc(O)cc1-n1ncc2cc(-c3cccc(CN4CCOCC4)c3)ccc21 (centres unmarked) [Example 77]	< 1000
CC(=O)Nc1ccc(-c2ccc3c(cnn3-c3cc(O)n[s+]3[O-])c2)cc1 (centres unmarked) [Example 66]	1000 to 5000
Cc1cccc2cnn(-c3cc(O)n[s+]3[O-])c12 (centres unmarked) [Example 34]	1000 to 5000

Second part, the molecule after the results:

EC50 [nM]	SMILES
< 1000	[O-][s+]1nc(O)cc1-n1ccc(-c2cccc(Br)c2)n1 (centres unmarked) [Example 286]
< 1000	[O-][s+]1nc(O)cc1-n1ncc2cc(-c3ccccc3)ncc21 (centres unmarked) [Example 233]
< 1000	Cn1ccc(-c2ccc3c(cnn3-c3cc(O)n[s+]3[O-])c2)n1 (centres unmarked) [Example 226]
1000 to 5000	[O-][s+]1nc(O)cc1-n1ncc2cc(C3=CCOCC3)ncc21 (centres unmarked) [Example 236]
1000 to 5000	[O-][s+]1nc(O)cc1-n1cc(C2CCCCC2)cn1 (centres unmarked) [Example 306]
1000 to 5000	[O-][s+]1nc(O)cc1-n1cc2c(n1)CCN(Cc1ccccc1)C2 (single isomer, unassigned) [Example 256]
< 1000	[O-][s+]1nc(O)cc1-n1ncc2cc(-c3cnn4cccnc34)ccc21 (centres unmarked) [Example 225]
1000 to 5000	[O-][s+]1nc(O)cc1-n1ncc2nc(-c3ccc(N4CCCC4)nc3)ccc21 (centres unmarked) [Example 240]
< 1000	Cn1nc(-c2ccc3c(cnn3-c3cc(O)n[s+]3[O-])c2)c2ccccc21 (centres unmarked) [Example 224]
1000 to 5000	COc1ccc(CN2CCc3c(cnn3-c3cc(O)n[s+]3[O-])C2)cn1 (centres unmarked) [Example 261]
